Assay: xn = mol fraction of the nth substance listed
Details: 100 kPa; for viscosity: 298.1 K

CCCC[N+]1(C)CCCC1.O=S(=O)([N-]S(=O)(=O)C(F)(F)F)C(F)(F)F + CC1COC(=O)O1
electrical conductivity (296.9 K, x1 = 0.4): 0.781 S/m | electrical conductivity (297.1 K, x1 = 0.6): 0.543 S/m | electrical conductivity (297.1 K, x1 = 0.9): 0.347 S/m | electrical conductivity (297.3 K, x1 = 0.2): 1 S/m | viscosity (x1 = 0.2): 5.5 mPa·s | viscosity (x1 = 0.4): 13.7 mPa·s | viscosity (x1 = 0.6): 29.8 mPa·s | viscosity (x1 = 0.8): 41.3 mPa·s | viscosity (x1 = 0.9): 48.1 mPa·s | electrical conductivity (299.8 K, x1 = 0.9): 0.366 S/m | electrical conductivity (299.9 K, x1 = 0.2): 1.02 S/m | electrical conductivity (299.9 K, x1 = 0.6): 0.571 S/m | electrical conductivity (302.5 K, x1 = 0.2): 1.04 S/m | electrical conductivity (302.5 K, x1 = 0.4): 0.835 S/m | electrical conductivity (302.6 K, x1 = 0.6): 0.593 S/m | electrical conductivity (302.6 K, x1 = 0.8): 0.444 S/m | electrical conductivity (302.6 K, x1 = 0.9): 0.387 S/m | electrical conductivity (305.3 K, x1 = 0.4): 0.864 S/m | electrical conductivity (305.4 K, x1 = 0.2): 1.07 S/m | electrical conductivity (305.4 K, x1 = 0.6): 0.615 S/m | electrical conductivity (305.4 K, x1 = 0.8): 0.471 S/m | electrical conductivity (305.4 K, x1 = 0.9): 0.417 S/m | electrical conductivity (307.9 K, x1 = 0.4): 0.882 S/m | electrical conductivity (307.9 K, x1 = 0.8): 0.501 S/m | electrical conductivity (308.1 K, x1 = 0.9): 0.437 S/m | electrical conductivity (308.2 K, x1 = 0.6): 0.639 S/m | electrical conductivity (308.4 K, x1 = 0.2): 1.11 S/m | electrical conductivity (310.9 K, x1 = 0.4): 0.901 S/m | electrical conductivity (310.9 K, x1 = 0.9): 0.461 S/m | electrical conductivity (311.1 K, x1 = 0.2): 1.13 S/m | electrical conductivity (311.1 K, x1 = 0.6): 0.666 S/m | electrical conductivity (313.5 K, x1 = 0.9): 0.487 S/m | electrical conductivity (313.7 K, x1 = 0.6): 0.683 S/m | electrical conductivity (316.3 K, x1 = 0.4): 0.963 S/m | electrical conductivity (316.3 K, x1 = 0.8): 0.578 S/m | electrical conductivity (316.5 K, x1 = 0.6): 0.704 S/m | electrical conductivity (316.5 K, x1 = 0.9): 0.508 S/m | electrical conductivity (319 K, x1 = 0.4): 0.988 S/m | electrical conductivity (319.2 K, x1 = 0.2): 1.19 S/m | electrical conductivity (319.2 K, x1 = 0.8): 0.603 S/m | electrical conductivity (319.2 K, x1 = 0.9): 0.529 S/m | electrical conductivity (321.9 K, x1 = 0.4): 1.01 S/m | electrical conductivity (322.1 K, x1 = 0.2): 1.2 S/m | electrical conductivity (322.1 K, x1 = 0.8): 0.628 S/m | electrical conductivity (322.3 K, x1 = 0.6): 0.746 S/m | electrical conductivity (324.6 K, x1 = 0.2): 1.22 S/m | electrical conductivity (324.7 K, x1 = 0.8): 0.652 S/m | electrical conductivity (324.9 K, x1 = 0.4): 1.02 S/m | electrical conductivity (324.9 K, x1 = 0.6): 0.771 S/m | electrical conductivity (324.9 K, x1 = 0.9): 0.59 S/m | electrical conductivity (327.2 K, x1 = 0.9): 0.615 S/m | electrical conductivity (327.4 K, x1 = 0.2): 1.24 S/m | electrical conductivity (327.4 K, x1 = 0.4): 1.05 S/m | electrical conductivity (327.4 K, x1 = 0.8): 0.677 S/m | electrical conductivity (330.1 K, x1 = 0.4): 1.07 S/m | electrical conductivity (330.3 K, x1 = 0.6): 0.811 S/m | electrical conductivity (330.4 K, x1 = 0.8): 0.701 S/m | electrical conductivity (332.9 K, x1 = 0.8): 0.721 S/m | electrical conductivity (333 K, x1 = 0.2): 1.27 S/m | electrical conductivity (333 K, x1 = 0.4): 1.09 S/m | electrical conductivity (333 K, x1 = 0.9): 0.661 S/m | electrical conductivity (333.2 K, x1 = 0.6): 0.828 S/m | electrical conductivity (335.5 K, x1 = 0.9): 0.683 S/m | electrical conductivity (335.7 K, x1 = 0.2): 1.3 S/m | electrical conductivity (335.9 K, x1 = 0.6): 0.842 S/m | electrical conductivity (335.9 K, x1 = 0.8): 0.74 S/m | electrical conductivity (336 K, x1 = 0.4): 1.12 S/m | electrical conductivity (338.5 K, x1 = 0.4): 1.13 S/m | electrical conductivity (338.5 K, x1 = 0.9): 0.706 S/m | electrical conductivity (338.7 K, x1 = 0.6): 0.864 S/m | electrical conductivity (341.4 K, x1 = 0.4): 1.16 S/m | electrical conductivity (341.4 K, x1 = 0.9): 0.734 S/m | electrical conductivity (341.6 K, x1 = 0.2): 1.32 S/m | electrical conductivity (343.8 K, x1 = 0.8): 0.804 S/m | electrical conductivity (344 K, x1 = 0.2): 1.33 S/m | electrical conductivity (344 K, x1 = 0.4): 1.16 S/m | electrical conductivity (344.2 K, x1 = 0.9): 0.752 S/m | electrical conductivity (344.4 K, x1 = 0.6): 0.908 S/m | electrical conductivity (347 K, x1 = 0.2): 1.34 S/m | electrical conductivity (347 K, x1 = 0.6): 0.935 S/m | electrical conductivity (347 K, x1 = 0.8): 0.835 S/m | electrical conductivity (347 K, x1 = 0.9): 0.781 S/m | electrical conductivity (349.5 K, x1 = 0.8): 0.849 S/m | electrical conductivity (349.9 K, x1 = 0.2): 1.36 S/m | electrical conductivity (349.9 K, x1 = 0.9): 0.808 S/m | electrical conductivity (350.1 K, x1 = 0.6): 0.951 S/m

CC1COC(=O)O1 (stereo unspecified) + CCCC[n+]1ccn(C)c1.O=S(=O)([N-]S(=O)(=O)C(F)(F)F)C(F)(F)F
viscosity (x2 = 0.2): 7.5 mPa·s | viscosity (x2 = 0.4): 11.9 mPa·s | viscosity (x2 = 0.6): 20 mPa·s | viscosity (x2 = 0.8): 31.4 mPa·s | viscosity (x2 = 0.9): 35.4 mPa·s
